For 16 molecules, Ki and IC50 results are on record in ChEMBL document CHEMBL1127822, “6-Alkyl- and 6-arylandrost-4-ene-3,17-diones as aromatase inhibitors. Synthesis and structure-activity relationships” (J Med Chem, 1994).

As usually defined, the Ki is a measure of affinity in units of concentration, obtained from inhibition or displacement. High values mean a looser hold on the target, low ones a stronger hold on the target. As usually defined, the IC50 is the concentration that inhibits the measured activity by half. Higher therefore signals a need for much substance.

For experiment [1], the target named is T1, Aromatase (Homo sapiens, UniProt P11511).
T1 sequence (P11511 whole entry): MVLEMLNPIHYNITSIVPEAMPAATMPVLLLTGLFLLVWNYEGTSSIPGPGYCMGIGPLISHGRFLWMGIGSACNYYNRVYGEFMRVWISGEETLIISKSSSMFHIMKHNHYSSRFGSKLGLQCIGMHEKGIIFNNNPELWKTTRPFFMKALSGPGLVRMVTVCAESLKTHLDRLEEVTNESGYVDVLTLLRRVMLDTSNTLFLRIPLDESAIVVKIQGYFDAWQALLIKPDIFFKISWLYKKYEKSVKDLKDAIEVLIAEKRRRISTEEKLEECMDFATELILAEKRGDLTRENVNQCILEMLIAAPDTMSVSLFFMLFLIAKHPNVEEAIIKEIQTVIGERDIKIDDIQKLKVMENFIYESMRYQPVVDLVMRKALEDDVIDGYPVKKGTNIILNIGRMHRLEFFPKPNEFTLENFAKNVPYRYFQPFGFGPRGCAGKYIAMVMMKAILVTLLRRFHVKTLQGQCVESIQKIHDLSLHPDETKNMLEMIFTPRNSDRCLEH
Put plainly: Binding affinity for human placental microsome Cytochrome P450 19A1.

For experiment [2], the target named is T1, Aromatase. Put plainly: Inhibitory concentration was tested on Cytochrome P450 19A1 in human placental microsomes 20 (microg) of protein incubated for 20 min. More on the design: species or system Placenta.
For experiment [3], the target named is T1, Aromatase. Put plainly: Binding affinity for human placental microsome aromatase Cytochrome P450 19A1.

On to `CC[C@H]1CC2C3CCC(=O)C3(C)CCC2C2(C)CCC(=O)C=C12` (some centres not stated), for which affinity on Aromatase [1] was put at a Ki of 4.7 nM. At Aromatase [2], this molecule registered a concentration for half-maximal inhibition (IC50) of 260 nM.
The corresponding values for `CCCC[C@@H]1CC2C3CCC(=O)C3(C)CCC2C2(C)CCC(=O)C=C12` (some centres not stated) are 8.8 nM and 510 nM.
Take `CC(C)[C@@H]1CC2C3CCC(=O)C3(C)CCC2C2(C)CCC(=O)C=C12` (some centres not stated): at Aromatase [3], the Ki amounted to 22 nM. The molecule also had an IC50 against Aromatase [2] of 1100 nM.
For the molecule `C=C[C@@H]1CC2C3CCC(=O)C3(C)CCC2C2(C)CCC(=O)C=C12` (some centres not stated), the Ki at Aromatase [3] was found to be 5.1 nM. This molecule also had an IC50 against Aromatase [2] of 320 nM.
In the case of `CC12CCC3C(C[C@H](c4ccccc4)C4=CC(=O)CCC43C)C1CCC2=O` (some centres not stated), the affinity at Aromatase [3] corresponds to a Ki of 21 nM. Besides, half-maximal inhibition against Aromatase [2] (IC50) was put at 1100 nM.
`CC12CCC3C(C[C@@H](Cc4ccccc4)C4=CC(=O)CCC43C)C1CCC2=O` (some centres not stated) returned a Ki on Aromatase [3] of 63 nM. On Aromatase [2], this molecule came in with an IC50 of 4000 nM.
`CCCC[C@H]1CC2C3CCC(=O)C3(C)CCC2C2(C)CCC(=O)C=C12` (some centres not stated) displayed a Ki on Aromatase [3] of 12 nM. For the same molecule, inhibition at Aromatase [2] was half-maximal at 790 nM (IC50).
On Aromatase [1], `CC[C@@H]1CC2C3CCC(=O)C3(C)CCC2C2(C)CCC(=O)C=C12` (some centres not stated) returned a Ki of 1.4 nM. For the same molecule, at Aromatase [2], the IC50 was found to be 140 nM.
Molecule `CC(C)[C@H]1CC2C3CCC(=O)C3(C)CCC2C2(C)CCC(=O)C=C12` (some centres not stated) registered a Ki on Aromatase [3] of 31 nM. Besides, on Aromatase [2], the 50% inhibitory concentration (IC50) is 1400 nM.
The corresponding values for `CC12CCC3C(C[C@H](Cc4ccccc4)C4=CC(=O)CCC43C)C1CCC2=O` (some centres not stated) are 10 nM and 660 nM.
For the molecule `C[C@H]1CC2C3CCC(=O)C3(C)CCC2C2(C)CCC(=O)C=C12` (some centres not stated), the affinity on Aromatase [1], expressed as Ki, was 5.6 nM. For the same molecule, the midpoint of inhibition on Aromatase [2], the IC50, lay at 350 nM.
`CCC[C@H]1CC2C3CCC(=O)C3(C)CCC2C2(C)CCC(=O)C=C12` (some centres not stated) came in with an inhibitory constant (Ki) on Aromatase [3] of 6.7 nM. The molecule further came in with an IC50 at Aromatase [2] of 390 nM.
Regarding `C#C[C@@H]1CC2C3CCC(=O)C3(C)CCC2C2(C)CCC(=O)C=C12` (some centres not stated), at Aromatase [1], the affinity corresponds to a Ki of 62 nM. It took 1900 nM to reach half-maximal inhibition against Aromatase [2] (IC50).
The like results for `CC12CCC3C(C[C@@H](c4ccccc4)C4=CC(=O)CCC43C)C1CCC2=O` (some centres not stated) were, in that order, 37 nM and 1700 nM.
The corresponding values for `CCC[C@@H]1CC2C3CCC(=O)C3(C)CCC2C2(C)CCC(=O)C=C12` (some centres not stated) are 4.6 nM and 240 nM.
As for `C[C@@H]1CC2C3CCC(=O)C3(C)CCC2C2(C)CCC(=O)C=C12` (some centres not stated), affinity on Aromatase [1] was put at a Ki of 11 nM. The molecule further came in with a half-inhibitory concentration (IC50) at Aromatase [2] of 720 nM.
